Results published in patent US10285979B2, “Breast cancer therapeutic agent containing 5′-hydroxy-5-nitro-indirubin-3′-oxime as active ingredient” (ANYGEN CO., LTD., priority 2016, dated 2019).
Where two headings read alike, the source gives them in different places.

System: MDA-MB-231 triple negative breast cancer cells
Conditions: paclitaxel 5 mg/kg
Excerpt: After implanting MDA-MB-231 triple negative breast cancer cells to the nude mouse, the tumor has been grown to the 200 mm^3 volume. […] The tumor growth has been observed for 27 days.
The tumor volume and shape in the nude mouse have been observed for 27 days.

`CC(=O)O[C@H]1C(=O)[C@@]2(C)[C@H]([C@H](OC(=O)c3ccccc3)[C@]3(O)C[C@H](OC(=O)[C@H](O)[C@@H](NC(=O)c4ccccc4)c4ccccc4)C(C)=C1C3(C)C)[C@]1(OC(C)=O)CO[C@@H]1C[C@@H]2O` [Paclitaxel, paclitaxel, reference compound] was tested, and the “volume of tumor, Mean ± S.E.” value (day 0) was 277.1 ± 16.2, the “volume of tumor, Mean ± S.E.” value (day 3) was 354.3 ± 6.3 and the “volume of tumor, Mean ± S.E.” value (day 6) was 437.9 ± 20.8. For the same compound, the “volume of tumor, Mean ± S.E.” value (day 12) was 716.8 ± 72.9, the “volume of tumor, Mean ± S.E.” value (day 15) was 906.2 ± 88.2 and the “volume of tumor, Mean ± S.E.” value (day 18) was 1161.2 ± 86.4. For the same compound, the “volume of tumor, Mean ± S.E.” value (day 21) was 1421.7 ± 82.6, the “volume of tumor, Mean ± S.E.” value (day 24) was 1760.2 ± 83.8 and the “volume of tumor, Mean ± S.E.” value (day 27) was 2136.0 ± 125.9.
